# Test results published in article PMC4420714 (Peptides, 2015).
# Entries after “also recorded” stand apart in the source; their conditions may differ. Read-outs that look alike come from different tables or passages of the source.
# Columns and labels:
# PAC1-R [1] = molecular target: T1, PAC1-R (Homo sapiens, UniProt P41586); test: [3H]cAMP generation in PAC1-R cells; format: cell-based
# T1 sequence (P41586 21-468): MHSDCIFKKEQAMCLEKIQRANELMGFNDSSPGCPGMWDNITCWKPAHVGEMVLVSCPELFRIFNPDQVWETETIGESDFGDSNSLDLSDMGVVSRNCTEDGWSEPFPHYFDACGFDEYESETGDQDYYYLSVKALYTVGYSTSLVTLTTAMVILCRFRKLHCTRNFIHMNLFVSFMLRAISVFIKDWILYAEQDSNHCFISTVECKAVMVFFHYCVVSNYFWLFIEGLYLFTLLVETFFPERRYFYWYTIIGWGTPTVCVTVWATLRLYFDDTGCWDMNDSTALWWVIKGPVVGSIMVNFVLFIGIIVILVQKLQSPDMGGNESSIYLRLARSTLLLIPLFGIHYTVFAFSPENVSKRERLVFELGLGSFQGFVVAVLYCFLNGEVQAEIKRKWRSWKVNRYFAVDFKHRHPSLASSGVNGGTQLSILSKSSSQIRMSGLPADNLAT
# VPAC1-R [2] = molecular target: T2, VPAC1-R (Homo sapiens, UniProt P32241); test: [3H]cAMP generation in VPAC1-R/PANC-1 cells; format: cell-based
# T2 sequence (P32241 31-457): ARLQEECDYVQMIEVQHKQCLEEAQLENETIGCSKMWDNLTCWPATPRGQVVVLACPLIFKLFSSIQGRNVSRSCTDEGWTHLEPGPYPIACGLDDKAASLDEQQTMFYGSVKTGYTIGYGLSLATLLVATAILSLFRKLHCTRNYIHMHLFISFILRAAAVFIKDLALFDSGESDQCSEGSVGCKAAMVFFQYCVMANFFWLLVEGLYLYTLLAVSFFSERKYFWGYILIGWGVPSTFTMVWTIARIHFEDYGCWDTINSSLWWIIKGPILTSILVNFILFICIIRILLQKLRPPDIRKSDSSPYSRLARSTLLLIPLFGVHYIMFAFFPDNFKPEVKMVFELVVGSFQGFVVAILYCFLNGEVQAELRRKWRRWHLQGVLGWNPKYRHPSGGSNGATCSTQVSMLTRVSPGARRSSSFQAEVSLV
# VPAC2-R [3] = molecular target: T3, VPAC2-R (Homo sapiens, UniProt P41587); test: [3H]cAMP generation in VPAC2-R/PANC-1 cells; format: cell-based
# T3 sequence (P41587 24-438): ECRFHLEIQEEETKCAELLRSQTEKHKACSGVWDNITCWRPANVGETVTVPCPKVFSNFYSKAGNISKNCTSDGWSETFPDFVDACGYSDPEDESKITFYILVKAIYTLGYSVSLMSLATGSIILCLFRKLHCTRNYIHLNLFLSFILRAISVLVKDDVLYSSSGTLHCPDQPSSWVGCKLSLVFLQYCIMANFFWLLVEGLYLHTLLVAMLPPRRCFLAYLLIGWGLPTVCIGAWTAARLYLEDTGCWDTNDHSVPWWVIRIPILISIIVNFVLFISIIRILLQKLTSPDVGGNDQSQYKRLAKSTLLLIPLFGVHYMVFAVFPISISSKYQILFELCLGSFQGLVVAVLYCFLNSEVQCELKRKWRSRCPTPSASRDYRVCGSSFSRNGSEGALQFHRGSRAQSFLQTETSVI
# PAC1-R [4] = molecular target: T1, PAC1-R; test: [3H]Inositol phosphate generation; format: cell-based; details: PAC1-R cells, IP EC50/cAMP EC50
# VPAC2-R [5] = molecular target: T3, VPAC2-R; test: Binding of 125I-PACAP27 to VPAC2-R/PANC-1 cells; details: ratio of binding IC50, analog vs native parent peptide
# VPAC1-R [6] = molecular target: T2, VPAC1-R; test: [3H]cAMP generation in T47D cells; format: cell-based; details: for [3H]cAMP T47D % max (agonist class): relative to PACAP38, up to 1 µM
# VPAC1-R [7] = molecular target: T2, VPAC1-R; test: Binding of 125I-VIP to VPAC1-R/PANC-1 cells; details: ratio of binding IC50, analog vs native parent peptide
# PAC1-R [8] = molecular target: T1, PAC1-R; details: PAC1-R over VPAC1-R; ref [13]; cited from earlier work
# PAC1-R [9] = molecular target: T1, PAC1-R; test: Binding of 125I-PACAP27 to PAC1-R stably transfected NIH 3T3 cells
Substance,"maximal increase in cAMP, PAC1-R cells (PAC1-R [1])","coupling ratio (IC50-binding affinity/EC50-cAMP generation), VPAC1-R/PANC-1 cells (VPAC1-R [2])","maximal increase in cAMP, VPAC1-R/PANC-1 cells (VPAC1-R [2])","maximal increase in cAMP, VPAC2-R/PANC-1 cells (VPAC2-R [3]; over control)",less potent at stimulating [3H]IP (PLC) than cAMP (PAC1-R [4]),"decrease in affinity for VPAC2-R/PANC-1 cells compared to native PACAP38 (or PACAP27, VIP) (VPAC2-R [5])",[3H]cAMP T47D % max of partial agonist (VPAC1-R [6]; partial agonist maximum),[3H]cAMP T47D % max (agonist class) (VPAC1-R [6]),"decrease in affinity for VPAC1-R/PANC-1 cells compared to native PACAP38 (or PACAP27, VIP) (VPAC1-R [7])",higher potency for PAC1-R cells compared to VPAC1-R/PANC-1 cells (PAC1-R [1]),higher potency for PAC1-R cells compared to VPAC2-R/PANC-1 cells (PAC1-R [1]),PAC1-selectivity reported in a previous study (PAC1-R [8]),decrease in affinity for PAC1-R cells compared to native PACAP38 (or PACAP27) (PAC1-R [9]),lower affinity for PAC1-R cells than VPAC1-R/PANC-1 cells (PAC1-R [9]),lower affinity for PAC1-R cells than VPAC2-R/PANC-1 cells (PAC1-R [9]),"[3H]cAMP T47D % max, agonist activity at 1 µM, still increasing (VPAC1-R [6]; at 1 µM)","[3H]cAMP PAC1-R % max (agonist class) (PAC1-R [1]; PAC1-R cells, relative to maximal stimulation by PACAP38, up to 1 µM)","[3H]cAMP VPAC1-R/PANC-1 % max (agonist class) (VPAC1-R [2]; VPAC1-R/PANC-1 cells, relative to PACAP38, up to 1 µM)","[3H]cAMP VPAC2-R/PANC-1 % max (agonist class) (VPAC2-R [3]; VPAC2-R/PANC-1 cells, relative to PACAP38, up to 1 µM)","lower affinity for PAC1-R cells than VPAC1-R/PANC-1 cells (PAC1-R [9]; binding IC50 ratio, VPAC1-R preferring)"
PACAP38 [reference compound],4.1 ± 1.5 fold,2.5 fold,5.0 ± 0.7 fold,6.5 ± 2.0 fold,19 fold,,,,,,,,,,,,,,,
[D-Ser^2]PACAP27 [Peptide P4],,,,,,7 fold,pAg (90) % max,pAg (90),37 fold,2-to-5 fold,12–140 fold,3 fold,15–25 fold,6–10 fold,2–9 fold,,,,,
[Pro^3]VIP [Peptide P50],,,,,,> 500 fold,,"Ag (1 µM, 68)",> 500 fold,,,,,,,"Ag (1 µM, 68) % max",no agonist activity; also recorded: No Act,"Ag (1 µM, 68)","Ag (1 µM, 52)",6–10 fold
